Measured values: patent publication US20230149358A1, “COMBINATION CANCER THERAPY WITH PENTAAZA MACROCYCLIC RING COMPLEX AND HORMONE THERAPY AGENT” (Galera Labs, LLC, priority 2020, published 2023)

Experiments:
[1] = system: MCF7-MnSOD^K68Q cells; test: Clonogenic cell survival, MCF7-MnSOD^K68Q cells; assay type: cell-based, human
Experimental: FIGS. 25a-25b show clonogenic cell survival studies in MCF7-MnSOD^K68Q cells exposed to either: Fulv at 100 nM (in FIG. 25a); or Palb at 0.5 μM (in FIG. 25b) using standard methods. […] Error bars are ±1 SEM. Experiments in triplicate. *** p<0.001.
Clonogenic cell survival assay. For the clonogenic survival analysis, exponentially growing cells were replated using appropriate dilutions, and clonogenic survival was evaluated after 14 days in regular growth medium. Cells were stained with crystal violet, and colonies of >50 cells were counted and utilized to calculate clonogenic survival^46.
To evaluate clonogenic cell survival by testing cell growth at low density, 500 exponentially growing cells were plated in triplicate in 6-well plates using serial dilution, and the growth of the cells was examined throughout 14 days in regular growth medium. Cells were fixed with 70% ethanol for 5 minutes and then stained with 0.5% crystal violet (in 25% methanol) for 20 minutes. Photos of stained plates were taken, and colonies of more than 50 cells were counted and used to calculate clonogenic survival.

[2] = system: T47D-MnSOD^K68Q cells; test: Clonogenic cell survival, T47D cells expressing MnSOD^K68Q; assay type: cell-based, human; conditions: 1 μM hydroxy-Tam
Experimental: FIGS. 14a-14g are images and plots that illustrate that loss of SIRT3-induced MnSOD-K68 deacetylation leads to hydroxy-Tam resistance in human breast cancer cells. With respect to FIG. 14a, T47D-MnSOD^WT, T47D-MnSOD^K68R, and T47D-MnSOD^K68D permanent cell lines were selected for hydroxy-Tam resistance in 1 μM for 3 months, and clonogenic cell survival experiments were completed. With respect to FIG. 14b, T47D-shCtrl and T47D-shSIRT3 permanent cell lines were exposed to 1 μM 4-hydroxy-Tam For 24 h (HT), and clonogenic cell survival experiments were done. With respect to FIG. 14c, T47D and T47D-HTR cells, with and without exposure to 1 μM 4-hydroxy-Tam for 24 h (HT), were measured for cytotoxicity by clonogenic survival experiments. […] The cell lysates were analyzed by immunoblotting with anti-MnSOD-K122-Ac (validated as a SIRT3 deacetylation target in Tao et al., 2010, Cancer Cell), anti-MnSOD, anti-OSCP-K139-Ac (validated as a SIRT3 deacetylation target in Tao et al., 2010, Cancer Cell), anti-OSCP, anti-IDH2K413-Ac (validated as a SIRT3 deacetylation target in Someya et al., 2010, Cancer Cell), anti-IDH2, and anti-actin. […]
Clonogenic cell survival assay. For the clonogenic survival analysis, exponentially growing cells were replated using appropriate dilutions, and clonogenic survival was evaluated after 14 days in regular growth medium. […]

[3] = system: MCF7 cells overexpressing MnSOD^K68Q; test: MTT assay, MCF7 cells overexpressing MnSOD^K68Q; assay type: cell-based, human; conditions: 48 hours
Experimental: In FIGS. 28a-28b, cell lysates of 250 nM, 500 nM, 1 μM cisplatin-resistant and […], 1 nM and 2 nM doxorubicin-resistant MCF7 cells (cultured in drug-containing media for 3 months) were collected and immunoblotted for MnSOD-K68-Ac, MnSOD, actin and tubulin. In FIG. […] After 48 hours, MTT assay is conducted to determine the cell viability after chemotherapy drug treatment.
Cell proliferation was measured using MTT proliferation assay kit (ab211091). 10,000 exponentially growing cells were plated in regular growth medium per well into 96-well plates in triplicate. Cells were treated with specified drugs after overnight and incubated for 48 hours. The treatment media was then discarded and a mixture of 50 μl MTT reagent and 50 μl serum-free media was added into each well and incubated for 3 hours at 37° C. 150 μl of MTT solvent was then added, and the plate was shaken for 15 minutes avoiding light. The absorbance was read at OD=590 nm and used to evaluate cell proliferation.

[4] = system: LNCaP-MnSOD^K68Q xenografts; test: LNCaP-MnSOD^K68Q hindlimb xenograft growth in nude mice; assay type: in vivo; conditions: male nude mice; GC4419 10 mg/kg once per week, ENZ 25 mg/kg/day; 46 days
Experimental: In FIG. 21(a), clonogenic cell survival experiments were performed in LNCaP-ENZR (left two bars) and LNCaP-MnSOD^K68Q (right two bars) treated with ENZ, with or without GC4419 (20 μM) for 5 days. […] Tumor volumes were measured three times a week for 46 days. For each group n=10. Error bars ±1 SEM. All experiments done in triplicate. **p<0.01.
Thus, it was surmised that restoring SOD activity, using the pentaaza macrocyclic ring complex GC4419, an agent that chemically detoxifies superoxide, would reverse/convert the ENZR to a sensitive phenotype. […] The dose and pharmacokinetics for GC4419 is based on data for murine models^92-93.

[5] = system: adult mice; conditions: lethal total body irradiation of adult mice; cited from earlier work
[6] = system: rat; conditions: rat model of inflammation; cited from earlier work
[7] = system: rat; conditions: rat model of collagen-induced arthritis; cited from earlier work
[8] = system: colon of rats; conditions: experimental model of colitis; cited from earlier work
[9] = system: hamster; conditions: acute radiation-induced oral mucositis; cited from earlier work

Compound: 4-hydroxytamoxifen [hydroxy-Tam]
- cytotoxicity (clonogenic survival), versus cells expressing MnSOD WT or K68R ([1]; MCF7 cells expressing MnSOD^K68Q, 1 μM hydroxy-Tam for 5 days): exhibited significant resistance to the cytotoxicity
- cytotoxicity (clonogenic survival), versus cells expressing MnSOD WT or K68R [2]: exhibited significant resistance to the cytotoxicity

Compound: [NH2][Pt]([NH2])([Cl])[Cl] [CDDP, cisplatin]
- cell viability (MTT), resistance ([3]; CDDP 1 μM): exhibited higher resistance

Compound: COc1cccc2c1C(=O)c1c(O)c3c(c(O)c1C2=O)C[C@@](O)(C(=O)CO)C[C@@H]3O[C@H]1C[C@H](N)[C@H](O)[C@H](C)O1 [DXR, doxorubicin]
- cell viability (MTT), resistance ([3]; DXR 2 nM): exhibited higher resistance

Compound: CNC(=O)c1ccc(N2C(=S)N(c3ccc(C#N)c(C(F)(F)F)c3)C(=O)C2(C)C)cc1F [ENZ, enzalutamide, reference compound]
- xenograft growth (tumor volume) [4]: exhibited similar growth characteristics as the control LNCaP cells

Compound: C[C@]12CC[C@@H]3c4ccc(O)cc4C[C@@H](CCCCCCCCC[S+]([O-])CCCC(F)(F)C(F)(F)F)[C@H]3[C@@H]1CC[C@@H]2O (some centres unmarked) [Fulv, Fulvestrant]
- clonogenic cell survival, resistance versus MCF7-MnSOD^WT ([1]; Fulv at 100 nM): exhibited resistance

Compound: [Cl-].[Cl-].[Mn+2].c1cc2nc(c1)CN[C@@H]1CCCC[C@H]1NCCN[C@@H]1CCCC[C@H]1NC2 [GC4403]
- radiation damage [5]: attenuate the radiation damage
- inflammation [6]: inhibit inflammation
- joint disease [7]: prevent joint disease
- injury to the colon [8]: very significantly reduce the injury to the colon
- radiation damage [9]: attenuate the radiation damage
